Data as given in article PMC5578959, “Selective LRRK2 kinase inhibition reduces phosphorylation of endogenous Rab10 and Rab12 in human peripheral mononuclear blood cells” (Scientific Reports, 2017).

Experiments:
[1] = tested on: T1, JAK2 domain2; experiment: KiNativ profiling in human PBMCs; type: binding; settings: Activation Loop
T1 construct: JAK2 domain2; purchased ActivX Technologies (KiNativ)
In short: (§1)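 Target engagement in cells was measured using KiNativ chemistry following treatment of live human PBMCs with each compound at concentrations of 1 µM and 0.1 µM.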

[2] = tested on: SGK,SGK2,SGK3; experiment: KiNativ profiling in human PBMCs; type: binding; settings: Lys1
In short: as §1

[3] = tested on: MARK3,MARK4,QIK; experiment: KiNativ profiling in human PBMCs; type: binding; settings: Lys1
In short: as §1

[4] = tested on: Regulator of telomere elongation helicase 1 (RTEL1); experiment: Global proteome analysis, immune stimulated human PBMCs; type: cell-based; settings: 100 nM, 24 hrs
Experimental: (§2) Freshly isolated PBMCs were plated at a density ranging from 7–20 × 10^6 cells in 10 cm petri dishes (Costar 3262) in RPMI-1640 media (Gibco 61870–010) supplemented with 10% non-heat inactivated FBS, 5 ml Antimycotic (Sigma cat:5965) with or without an immune stimulation cocktail consisting of 400 nM phorbol 12-myristate 13-acetate (PMA) and 100 ng/ml interferon-γ (INF-γ). After 48 hrs in culture the cultures were added a fifth of the volume media containing 5x the final concentration of the respective LRRK2 inhibitor with or without PMA and interferon-γ. […] Approximately, 400 µg of protein from each individual donor was needed in order to run the full PBMC stimulation and inhibition study with subsequent global proteome and phosphoproteome (PhosphoScout®) analyses. […]
(§3) Upon the respective treatments cells were washed with cold PBS, snap-frozen in liquid N2 and shipped to Evotec on dry-ice. […] Cell lysis was performed in ice-cold lysis buffer (8 M urea, 50 mM Tris pH 8.2, 10 mM sodium pyrophosphate, 5 mM EDTA, 5 mM EGTA, 10 mM sodium fluoride, 10 mM β-glycerophosphate, 10 mM sodium orthovanadate, phosphatase inhibitor cocktail 2 and 3 (Sigma, 1:100 (v/v)) and Complete protease inhibitor cocktail tablets (Roche). Cell extracts were sonicated on ice and the cell debris was removed by centrifugation before protein concentrations were determined (Bradford, BioRad). […]

[5] = tested on: LRRK2; experiment: as above; type: cell-based; settings: 100 nM, 24 hrs, not statistically significant (q-value: 0.08)
Experimental: as §2, §3

[6] = tested on: T2, ITPK1; experiment: KiNativ profiling in human PBMCs; type: binding; settings: ATP
T2 construct: purchased ActivX Technologies (KiNativ)

[7] = tested on: T3, FYN; experiment: KiNativ profiling in human PBMCs; type: binding; settings: Lys1
T3 construct: purchased ActivX Technologies (KiNativ)

[8] = tested on: T4, PDHK1; experiment: KiNativ profiling in human PBMCs; type: binding; settings: ATP
T4 construct: purchased ActivX Technologies (KiNativ)

[9] = tested on: PI4KA, PI4KAP2; experiment: KiNativ profiling in human PBMCs; type: binding; settings: ATP
[10] = tested on: T5, GPRK5; experiment: KiNativ profiling in human PBMCs; type: binding; settings: Lys2
T5 construct: purchased ActivX Technologies (KiNativ)

[11] = tested on: T6, BLK; experiment: KiNativ profiling in human PBMCs; type: binding; settings: Activation Loop
T6 construct: purchased ActivX Technologies (KiNativ)

[12] = tested on: T7, AMPKa1; experiment: KiNativ profiling in human PBMCs; type: binding; settings: ATP Loop
T7 construct: purchased ActivX Technologies (KiNativ)
In short: as §1

[13] = tested on: AMPKa1,AMPKa2; experiment: KiNativ profiling in human PBMCs; type: binding
In short: as §1

[14] = tested on: T8, MAPKAPK3; experiment: KiNativ profiling in human PBMCs; type: binding; settings: ATP Loop
T8 construct: purchased ActivX Technologies (KiNativ)
In short: as §1

[15] = tested on: T9, CK2a1; experiment: KiNativ profiling in human PBMCs; type: binding; settings: Protein Kinase Domain
T9 construct: purchased ActivX Technologies (KiNativ)

[16] = tested on: T10, MAST4; experiment: KiNativ profiling in human PBMCs; type: binding; settings: Lys2
T10 construct: purchased ActivX Technologies (KiNativ)

[17] = tested on: T11, ITK; experiment: KiNativ profiling in human PBMCs; type: binding; settings: Activation Loop
T11 construct: purchased ActivX Technologies (KiNativ)

[18] = tested on: T12, GAK; experiment: KiNativ profiling in human PBMCs; type: binding; settings: Lys2
T12 construct: purchased ActivX Technologies (KiNativ)

Question: What does the source list for `Cc1cccc(-c2cc(Nc3ccn(C)n3)nc3[nH]cc(C#N)c23)c1` [Lu AF58786]?
Answer: Inhibition ([1]; 0.1µM): 16.1%; Inhibition ([1]; 1µM): -3.5%; Inhibition ([2]; 0.1µM): 7.0%; Inhibition ([2]; 1µM): 0.243%; Inhibition ([3]; 0.1µM): 3.0%; Inhibition ([3]; 1µM): 5.7%; RTEL1 expression level downregulated [4]: 2 fold; LRRK2 down-regulated on the protein level [5]: approximately 1.7 fold

Question: With `Cn1cc(-c2c[nH]c3ncnc(N4CCOCC4)c23)cc1C#N` [PFE-360] as the compound, how does the “% Inhibition” value ([6]; 0.1µM) read?
Answer: -34%

Question: What about the “% Inhibition” value ([6]; 1µM) of the same compound?
Answer: -34.7%

Question: And the “% Inhibition” value ([7]; 0.1µM)?
Answer: -23.9%

Question: What about the “% Inhibition” value ([7]; 1µM) of the same compound?
Answer: -19%

Question: And the “% Inhibition” value ([8]; 0.1µM)?
Answer: -3.7%

Question: And the “% Inhibition” value ([8]; 1µM)?
Answer: -3%

Question: And the “% Inhibition” value ([9]; 0.1µM)?
Answer: -6%

Question: And the “% Inhibition” value ([9]; 1µM)?
Answer: 4.4%

Question: What about the “% Inhibition” value ([10]; 0.1µM) of the same compound?
Answer: 19.3%

Question: What about the “% Inhibition” value ([10]; 1µM) of the same compound?
Answer: 1.5%

Question: And the “% Inhibition” value ([11]; 0.1µM)?
Answer: 12.4%

Question: What about the “% Inhibition” value ([11]; 1µM) of the same compound?
Answer: -11.6%

Question: What about the “% Inhibition” value ([12]; 0.1µM) of the same compound?
Answer: -1%

Question: And the “% Inhibition” value ([12]; 1µM)?
Answer: 4%

Question: And the “% Inhibition” value ([13]; 0.1µM, Lys1)?
Answer: 0.8%

Question: What about the “% Inhibition” value ([13]; 0.1µM, Lys2) of the same compound?
Answer: -17.7%

Question: What about the “% Inhibition” value ([13]; 1µM, Lys1) of the same compound?
Answer: -2.7%

Question: What about the “% Inhibition” value ([13]; 1µM, Lys2) of the same compound?
Answer: 7.4%

Question: And the “% Inhibition” value ([14]; 0.1µM)?
Answer: -5.1%

Question: And the “% Inhibition” value ([14]; 1µM)?
Answer: -8.3%

Question: And the “% Inhibition” value ([15]; 0.1µM)?
Answer: -27.7%

Question: And the “% Inhibition” value ([15]; 1µM)?
Answer: -26.5%

Question: And the “% Inhibition” value ([16]; 0.1µM)?
Answer: -5.7%

Question: And the “% Inhibition” value ([16]; 1µM)?
Answer: -21.4%

Question: What about the “% Inhibition” value ([17]; 0.1µM) of the same compound?
Answer: 3.5%

Question: What about the “% Inhibition” value ([17]; 1µM) of the same compound?
Answer: -4.7%

Question: What about the “% Inhibition” value ([18]; 0.1µM) of the same compound?
Answer: -12.4%

Question: And the “% Inhibition” value ([18]; 1µM)?
Answer: -36.6%
